Laboratory results published in ChEMBL document CHEMBL1201862, “PubChem BioAssay data set” (2004).
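Where inhibition never reached the appropriate level, the endpoint shown equals the highest concentration tested. Otherwise, values were interpolated linearly from a five-concentration, 48-hour dose response in 96-well plates. Abbreviation: GI50, concentration required for 50% inhibition of growth.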 Activity calls are given as the source filed them. No stated cut-off is given here; in the data, active = GI50 up to about 1.1 µM and inactive = higher.

How the values were obtained:
Experiment in all cases: inhibition of tumour cell growth, NCI panel, 48 h
A498 = tested on: A498
ACHN = tested on: ACHN
BT-549 = tested on: BT-549
EKVX = tested on: EKVX
HCT-116 = tested on: HCT-116
HOP-62 = tested on: HOP-62
K562 = tested on: K562
MDA-MB-231 = tested on: MDA-MB-231
MDA-MB-435 = tested on: MDA-MB-435
Malme-3M = tested on: Malme-3M
OVCAR-3 = tested on: OVCAR-3
OVCAR-8 = tested on: OVCAR-8
PC-3 = tested on: PC-3
RPMI-8226 = tested on: RPMI-8226
RXF 393 = tested on: RXF 393
SK-MEL-28 = tested on: SK-MEL-28
SK-MEL-2 = tested on: SK-MEL-2
U-251 = tested on: U-251
UACC-257 = tested on: UACC-257
UO-31 = tested on: UO-31

Compound	GI50 (A498)	GI50 (ACHN)	GI50 (BT-549)	GI50 (EKVX)	GI50 (HCT-116)	GI50 (HOP-62)	GI50 (K562)	GI50 (MDA-MB-231)	GI50 (MDA-MB-435)	GI50 (Malme-3M)	GI50 (OVCAR-3)	GI50 (OVCAR-8)	GI50 (PC-3)	GI50 (RPMI-8226)	GI50 (RXF 393)	GI50 (SK-MEL-28)	GI50 (SK-MEL-2)	GI50 (U-251)	GI50 (UACC-257)	GI50 (UO-31)
CCOC(=O)c1c2c(n3ccccc13)C(=O)c1ccccc1C2=O	61.4 µM (inactive)	17.9 µM (inactive)	21.6 µM (inactive)	> 100 µM (inactive)	> 100 µM (inactive)	97.9 µM (inactive)	> 100 µM (inactive)	> 100 µM (inactive)	> 100 µM (inactive)	7.91 µM (inactive)	> 100 µM (inactive)	> 100 µM (inactive)	> 100 µM (inactive)	> 100 µM (inactive)	48.1 µM (inactive)	> 100 µM (inactive)	> 100 µM (inactive)	54.5 µM (inactive)	> 100 µM (inactive)	> 100 µM (inactive)
CC[C@@]1(O)C(=O)OCc2c1cc1n(c2=O)Cc2c-1nc1ccc(N)cc1c2CC[Si](C)(C)C	< 0.01 µM (active)	< 0.01 µM (active)	< 0.01 µM (active)	< 0.0212 µM (active)	< 0.01 µM (active)	< 0.01 µM (active)	< 0.01 µM (active)	< 0.0363 µM (active)	< 0.01 µM (active)	< 0.0115 µM (active)	< 0.0188 µM (active)	< 0.01 µM (active)	< 0.0229 µM (active)	< 0.01 µM (active)	< 0.01 µM (active)	0.0227 µM (active)	0.0409 µM (active)	< 0.01 µM (active)	< 0.01 µM (active)	< 0.01 µM (active)
